This test relates to nude mice, HT29 intrarenal xenograft, tumor weight T/C. Description: NCI In Vivo Anticancer Drug Screen. Data for tumor model HT29;CX-1 Human Adenocarcinoma (MER+) (intrarenal inoculation) in NU/NU Swiss (nude) mice. As to conditions: endpoint: mean tumor weight change, higher = larger tumour. The gist of the method: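 Endpoint measured as tumor size or survival; ratio reported is treated group over vehicle controls.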

Setting [1] is: dose: 0.5 mg/kg/injection, schedule: Q01DX010 (sc), vehicle: saline.
Where [2] appears, read: dose: 4.0 mg/kg/injection, schedule: Q01DX010 (sc), vehicle: saline.

Values joined by “and” are separate entries in the source; they are usually repeats but may differ in a detail not shown here. Identical values can stand only once. Inconclusive results are not listed.

For the compound `COc1cccc2c1C(=O)c1c(O)c3c(c(O)c1C2=O)C[C@@](O)(C(=O)CO)C[C@@H]3OC1CC(N)C(O)C(C)O1` (some centres undefined), the T/C reads like this: (dose: 0.25 mg/kg/injection, schedule: Q01DX010 (ip), vehicle: water) -27 % of control; under setting [1], 62 % of control; (dose: 1.0 mg/kg/injection, schedule: Q01DX010 (sc), vehicle: saline) 30 % of control and 32 % of control; (dose: 1.5 mg/kg/injection, schedule: Q01DX010 (sc), vehicle: saline) 96 % of control; (dose: 2.0 mg/kg/injection, schedule: Q01DX010 (ip), vehicle: water) -20 % of control; (dose: 2.0 mg/kg/injection, schedule: Q01DX010 (sc), vehicle: saline) 15 % of control and 29 % of control. In addition, the T/C is 109 % of control (dose: 3.0 mg/kg/injection, schedule: Q01DX010 (sc), vehicle: saline); 4 % of control and 27 % of control under setting [2]; 102 % of control (dose: 6.0 mg/kg/injection, schedule: Q01DX010 (sc), vehicle: saline); 62 % of control (dose: 7.5 mg/kg/injection, schedule: Q04DX004 (sc), vehicle: saline).
With `COc1cc([C@@H]2c3cc4c(cc3[C@@H](OC3OC5COC(C)OC5C(O)C3O)[C@H]3COC(=O)[C@H]23)OCO4)cc(OC)c1O` (some centres undefined), the T/C under setting [2] is 71 % of control and the T/C (dose: 32.0 mg/kg/injection, schedule: Q01DX010 (sc), vehicle: saline) is 62 % of control.
Turning to `N[C@H](C(=O)O)[C@@H]1CC(Cl)=NO1`, the T/C is 21 % of control under setting [2] and 35 % of control (dose: 8.0 mg/kg/injection, schedule: Q01DX010 (sc), vehicle: saline).
Take `NCCc1cc(O)c(O)c(O)c1`: the T/C was 92 % of control (dose: 200.0 mg/kg/injection, schedule: Q04DX004 (sc), vehicle: saline); 120 % of control (dose: 400.0 mg/kg/injection, schedule: Q04DX004 (sc), vehicle: saline); 101 % of control (dose: 800.0 mg/kg/injection, schedule: Q04DX004 (sc), vehicle: saline); 61 % of control (dose: 1600.0 mg/kg/injection, schedule: Q04DX004 (sc), vehicle: saline).
As to `Cc1cn(C2CC(F)C(CO)O2)c(=O)[nH]c1=O` (centres undefined), the T/C was 65 % of control (dose: 100.0 mg/kg/injection, schedule: Q04DX004 (sc), vehicle: suspension in saline); 60 % of control (dose: 200.0 mg/kg/injection, schedule: Q04DX004 (sc), vehicle: suspension in saline); 117 % of control (dose: 400.0 mg/kg/injection, schedule: Q04DX004 (sc), vehicle: suspension in saline); 74 % of control (dose: 800.0 mg/kg/injection, schedule: Q04DX004 (sc), vehicle: suspension in saline).
As to `COc1ccc(C(=O)C(CN(C)C)CN(C)C)cc1`, the T/C was 100 % of control (dose: 12.5 mg/kg/injection, schedule: Q04DX004 (sc), vehicle: saline) and 38 % of control (dose: 25.0 mg/kg/injection, schedule: Q04DX004 (sc), vehicle: saline).
Consider `CC(=O)OCC1OC(OC(C)=O)C(NC(=O)N(CCCl)N=O)C(OC(C)=O)C1OC(C)=O` (centres undefined), for which the T/C was 30 % of control (dose: 3.0 mg/kg/injection, schedule: Q04DX004 (sc), vehicle: Klucel (hydroxypropylcellulose) (HPC)); 40 % of control (dose: 6.0 mg/kg/injection, schedule: Q04DX004 (sc), vehicle: Klucel (hydroxypropylcellulose) (HPC)); 60 % of control (dose: 12.0 mg/kg/injection, schedule: Q04DX004 (sc), vehicle: Klucel (hydroxypropylcellulose) (HPC)); 96 % of control (dose: 24.0 mg/kg/injection, schedule: Q04DX004 (sc), vehicle: Klucel (hydroxypropylcellulose) (HPC)).
For the compound `NC1=NCN(C2OC(CO)C(O)C2O)C(=O)N1` (centres undefined), the T/C is 70 % of control (dose: 25.0 mg/kg/injection, schedule: Q01DX010 (sc), vehicle: saline); 31 % of control (dose: 50.0 mg/kg/injection, schedule: Q01DX010 (sc), vehicle: saline); 38 % of control (dose: 100.0 mg/kg/injection, schedule: Q01DX010 (sc), vehicle: saline).
As to `CNc1nc(N(C)C)nc(N(C)C)n1`, the T/C by setting is: (dose: 12.5 mg/kg/injection, schedule: Q04DX004 (sc), vehicle: water) 54 % of control; (dose: 15.0 mg/kg/injection, schedule: Q01DX010 (sc), vehicle: water) 89 % of control; (dose: 25.0 mg/kg/injection, schedule: Q04DX004 (sc), vehicle: water) 75 % of control; (dose: 50.0 mg/kg/injection, schedule: Q04DX004 (sc), vehicle: water) 51 % of control; (dose: 100.0 mg/kg/injection, schedule: Q04DX004 (sc), vehicle: water) 51 % of control.
In the case of `COC1=C(N)C(=O)c2nc(-c3nc(C(=O)O)c(C)c(-c4ccc(OC)c(OC)c4O)c3N)ccc2C1=O`, the T/C by setting is: (dose: 0.13 mg/kg/injection, schedule: Q01DX010 (sc), vehicle: saline) -33 % of control; under setting [1], -10 % of control.
Regarding `COc1ccc2[nH]c3ccc4cc[n+](CCN5CCC(C6CCN(CC[n+]7ccc8ccc9[nH]c%10ccc(OC)cc%10c9c8c7)CC6)CC5)cc4c3c2c1`, the T/C was 194 % of control (dose: 150.0 mg/kg/injection, schedule: Q04DX004 (sc), vehicle: Klucel (hydroxypropylcellulose) (HPC)); 189 % of control (dose: 300.0 mg/kg/injection, schedule: Q04DX004 (sc), vehicle: Klucel (hydroxypropylcellulose) (HPC)); 83 % of control (dose: 600.0 mg/kg/injection, schedule: Q04DX004 (sc), vehicle: Klucel (hydroxypropylcellulose) (HPC)).
Consider `CCOC(=O)[C@]1(Br)CC[C@@]1(Br)C(=O)OCC`, for which the T/C reads like this: (dose: 400.0 mg/kg/injection, schedule: Q04DX004 (sc), vehicle: saline with Tween-80) 105 % of control; (dose: 800.0 mg/kg/injection, schedule: Q04DX004 (sc), vehicle: saline with Tween-80) 93 % of control; (dose: 1600.0 mg/kg/injection, schedule: Q04DX004 (sc), vehicle: saline with Tween-80) 43 % of control.
As to `CC(=O)CC(=O)CCC(=O)O`, the T/C runs as follows: (dose: 150.0 mg/kg/injection, schedule: Q04DX004 (sc), vehicle: saline) 111 % of control; (dose: 600.0 mg/kg/injection, schedule: Q04DX004 (sc), vehicle: saline) 113 % of control; (dose: 1200.0 mg/kg/injection, schedule: Q04DX004 (sc), vehicle: saline) 104 % of control.
`CC(=O)O[C@@H]1CO[C@H]2O[C@H]3[C@@H](C(C=O)=C[C@H](O)[C@@H]4C5=C(C(C)C)CC[C@]5(C)CC[C@@]34C)[C@@]2(O)C1=O`: the T/C runs as follows: (dose: 12.5 mg/kg/injection, schedule: Q04DX004 (sc), vehicle: Klucel (hydroxypropylcellulose) (HPC)) 110 % of control; (dose: 25.0 mg/kg/injection, schedule: Q04DX004 (sc), vehicle: Klucel (hydroxypropylcellulose) (HPC)) 83 % of control; (dose: 50.0 mg/kg/injection, schedule: Q04DX004 (sc), vehicle: Klucel (hydroxypropylcellulose) (HPC)) 76 % of control; (dose: 100.0 mg/kg/injection, schedule: Q04DX004 (sc), vehicle: Klucel (hydroxypropylcellulose) (HPC)) 58 % of control.
Take `CCC1CCCCN1C(=S)N/N=C(\C)c1ccccn1` (centres undefined): the T/C is 59 % of control (dose: 37.5 mg/kg/injection, schedule: Q04DX004 (sc), vehicle: saline with Tween-80) and 26 % of control (dose: 75.0 mg/kg/injection, schedule: Q04DX004 (sc), vehicle: saline with Tween-80).
For `NC(=O)c1csc(C2OC(CO)C(O)C2O)n1` (centres undefined), for the setting “dose: 125.0 mg/kg/injection, schedule: Q04DX004 (sc), vehicle: water”, the T/C was 119 % of control.
On to `COC(=O)C(Cl)(Cl)N=Nc1c(Cl)cc(Cl)c(C)c1Cl`, for which the T/C (dose: 225.0 mg/kg/injection, schedule: Q04DX004 (sc), vehicle: saline with Tween-80) was 87 % of control; the T/C (dose: 450.0 mg/kg/injection, schedule: Q04DX004 (sc), vehicle: saline with Tween-80) was 105 % of control; the T/C (dose: 900.0 mg/kg/injection, schedule: Q04DX004 (sc), vehicle: saline with Tween-80) was 81 % of control; the T/C (dose: 1800.0 mg/kg/injection, schedule: Q04DX004 (sc), vehicle: saline with Tween-80) is 115 % of control.
For the compound `O=C(O[Si](Cc1ccccc1)(Cc1ccccc1)Cc1ccccc1)N(CCCl)CCCl`, the T/C runs as follows: (dose: 100.0 mg/kg/injection, schedule: Q04DX004 (sc), vehicle: saline with Tween-80) 119 % of control; (dose: 200.0 mg/kg/injection, schedule: Q04DX004 (sc), vehicle: saline with Tween-80) 121 % of control.
With `COC(=Nc1ccccc1)SSC(C)C`, the T/C reads like this: (dose: 150.0 mg/kg/injection, schedule: Q04DX004 (sc), vehicle: saline with Tween-80) 104 % of control; (dose: 300.0 mg/kg/injection, schedule: Q04DX004 (sc), vehicle: saline with Tween-80) 118 % of control; (dose: 600.0 mg/kg/injection, schedule: Q04DX004 (sc), vehicle: saline with Tween-80) 117 % of control; (dose: 1200.0 mg/kg/injection, schedule: Q04DX004 (sc), vehicle: saline with Tween-80) 117 % of control.

The values are drawn from PubChem BioAssay AID206 (DTP/NCI, 2004).
